{"source": "patent US9993490B2", "about": "“Phosphonic acid compounds and screening method” (The Board of Trustees of The University of Illinois, priority 2014, dated 2018)", "key": {"Escherichia coli WM6242": {"system": "Escherichia coli WM6242", "experiment": "Growth inhibition in liquid culture", "type": "cell-based", "settings": "upon induction of phosphonate uptake machinery (1 mM IPTG); 100 ug ml^-1", "description": "(§1) Antibiotic activity for purified PnPs was examined by growth inhibition in liquid cultures. Salmonella typhimurium LT2, Escherichia coli WM6242 (±1 mM IPTG), and Pseudomonas aeruginosa K were grown in M9-glucose. Bacillus subtilis subsp. spizizenii ATCC 6633, Staphylococcus aureus ATCC 25923, and Mycobacterium smegmatis NRRL B-14616 (37° C.) were cultivated in R2A. 96-Well plates containing 150 μL of media was inoculated with 1.5 uL of the appropriate cultures (OD600=0.4-0.5). Kanamycin, aminomethylphosphonate, 1-hydroxy-2-aminoethylphosphonate, (R)-2,3-dihydroxypropylphosphonate, argolaphos A, and argolaphos B were added to a final concentration of 100 ug ml^−1. After growth for 16 hours (24 for M. smegmatis) in a shaking incubator (200 rpm), cell densities recorded on a Tecan microplate reader."}, "[1]": {"system": "Mycobacterium smegmatis NRRL B-14616", "experiment": "Growth inhibition in liquid culture", "type": "cell-based", "settings": "100 ug ml^-1, R2A, 37° C., 24 hours", "description": "as §1"}, "[2]": {"experiment": "Stability in the course of purification", "type": "physicochemical", "settings": "fraction 2 of S. durhamensis NRRL B-3309 extract", "description": "The liquid was concentrated to dryness and dissolved in 200 mL of 0.1% aqueous acetic acid, which was then applied to a 100 mL Fe(III) IMAC gravity column. Before sample loading the column was equilibrated with 0.1% acetic acid. After sample loading, the column was washed successively with 5 volumes of 0.1% acetic acid and 0.1% acetic acid in 20% acetonitrile (ACN). The materials were eluted from the column with 100 mM aqueous NH4HCO3. The eluate (200 mL) from the iron IMAC column was dried with a rotary evaporator as fraction 1. The unabsorbed sample was also dried as fraction 2."}}}
{"compound": "NCC(O)OP(=O)(O)O", "note": "(stereo not drawn) [Compound 11, 1-hydroxy-2-aminoethylphosphoric acid]", "values": [{"measurement": "antibiotic activity against E. coli", "setting": "Escherichia coli WM6242", "result": "effective antibiotic"}]}
{"compound": "O=P(O)(O)C[C@H](O)CO", "note": "[Compound 4, (R)-2,3-dihydroxypropylphosphonic acid]", "values": [{"measurement": "growth inhibition of Mycobacterium smegmatis", "setting": "[1]", "result": "slightly inhibited growth"}]}
{"compound": "cyclic 2,3-dihydroxypropanoic acid [Compound 6]", "values": [{"measurement": "stability during purification", "setting": "[2]", "result": "unstable and easily decomposed"}]}
